Patent US20220372008A1 (VIDYASIRIMEDHI INSTITUTE OF SCIENCE AND TECHNOLOGY, priority 2019, published 2022)

Tests used:
[1] = molecular target: firefly luciferase (Photinus pyralis, UniProt P08659)
Protocol: The pure luciferin and the purified luciferin derivatives, which are derived from the synthesis and purification methods, reacts with the firefly luciferase, and then the emission wavelength is measured.
The reaction between the luciferin derivatives of the present disclosure and the firefly luciferase can emit the light.

[2] = format: physicochemical
Protocol: The term “thermostable dehalogenase” used herein refers to the dehalogenase or HadA, which is reengineered or modified, particularly modified on the surface of a wild-type dehalogenase or HadA. The reengineered or modified dehalogenase or HadA, which is called a thermostable HadA or HadA G513T, has an improvement on a temperature stability. The catalytic efficiency of the thermostable HadA or HadA G513T is in a broader range of temperature from 25-50° C. Further, the wild-type dehalogenase or HadA is a dechlorinating monooxygenase that can catalyze the elimination of nitro- and halides (F, Cl, Br, I) group from nitro- and halogenated phenols substrate. The wild type HadA can catalyze the reaction at 25° C. for 24 h. Whereas the reaction at higher temperature (>30° C.), the half-life of wild type HadA is dramatically decrease for 20 min. In accordance with various embodiments, the present disclosure relates to luciferin derivatives and a method for synthesis of the luciferin derivatives.
The thermostable dehalogenase is a modified HadA, particularly HadA G513T (Thermostable dehalogenase; HadA G513T), containing an amino acid sequence, which is set forth in SEQ ID NO.1 as shown in FIG. 8. The thermostable dehalogenase or HadA G513T is able to catalyze in a range of temperature from 25-50° C. and its half-life at 50° C. is 200 min. However, […]

Chain of firefly luciferase (P08659 whole entry): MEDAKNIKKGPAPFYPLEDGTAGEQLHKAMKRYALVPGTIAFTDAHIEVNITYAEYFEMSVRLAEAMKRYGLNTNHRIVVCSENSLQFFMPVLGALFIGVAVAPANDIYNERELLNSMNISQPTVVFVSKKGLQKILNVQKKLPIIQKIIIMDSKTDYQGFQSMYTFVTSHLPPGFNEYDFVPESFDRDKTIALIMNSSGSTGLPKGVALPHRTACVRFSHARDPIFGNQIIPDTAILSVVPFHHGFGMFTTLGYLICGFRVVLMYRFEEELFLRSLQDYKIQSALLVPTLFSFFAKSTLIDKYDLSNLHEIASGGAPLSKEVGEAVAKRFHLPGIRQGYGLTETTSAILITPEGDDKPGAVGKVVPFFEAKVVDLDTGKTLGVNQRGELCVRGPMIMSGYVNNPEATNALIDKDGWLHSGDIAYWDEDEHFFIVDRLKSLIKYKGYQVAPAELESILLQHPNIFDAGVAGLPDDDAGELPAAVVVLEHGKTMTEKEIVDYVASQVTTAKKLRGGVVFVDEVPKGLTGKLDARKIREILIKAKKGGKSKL

| emitting wavelength as substrate for the firefly luciferase ([1]; spectrofluorometer under bioluminescent mode) [nm] | maximum emission wavelength ([1]; substrate for wild-type firefly luciferase, FIG. 5) [nm] | Molecule | half-life [2] [h] |
| --- | --- | --- | --- |
| 604 | 604 | 7′-bromoluciferin |  |
|  |  | HadA G513T: modified HadA, thermostable dehalogenase with amino acid sequence SEQ ID NO.1 (protein, listed as Escherichia coli) MIRTGTQYLESLNDGRNVWVGNEKIDNVATHPKTRDYAQRHADFYDLHHRPDLQDVMTYIDEGGQRRAMQWFGHRDKEQLRRKRKYHETVMREMAGASFPRTPDVNNYVLTTYIDDPAPWETQSIGDDGHIKAGKIVDFIRYAREHDLNCAPQFVDPQMDRSNPDAQERSPGLRVVEKNEKGIVVNGVKAIGTGVAFADWIHIGVFFRPGIPGDQVIFAATPVNTPGVTIVCRESLVKDDKVEHPLAAQGDELDGMTVFENVFIPWSHVFHIGNPNHAKLYPQRVFDWLHYHALIRQMVRAELVAGLAVLITEHIGTNKIPAVQTRVAKLIGFHQAMLAHLIASEELGFHTPGGHYKPNILIYDFGRALYLENFSQMIYELVDLSGRSALIFASEDQWNDDKLNGWFERMNNGPVGRPHDRVKIGRVIRDLFLTDWGSRLFVFENFNGTPLQGIRMLTMQRAEFSGSGPYGKLARQVCGIDSAVTDDTEYRKTADYAKALDAARHQEEVALATAMAI | 3.33 |
